Test results reported in patent US8044073B2, “Aminobenzimidazoles and benzimidazoles as inhibitors of respiratory syncytial virus replication” (Tibotec Pharmaceuticals, priority 2003, dated 2011).
Like-named read-outs stand apart in the source and are kept apart here.

What was measured:
[1] = tested on: Respiratory Syncytial Virus; assay: In vitro screening for activity against RSV (tetrazolium-based colorimetric assay, protection against viral cytopathology); format: cell-based; details: human respiratory syncytial virus, read-out: Activity (converted)
Procedure, shortened: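 HeLa cells in Eagle's Basal Medium with 5% FCS and 20 mM Hepes, ~100 TCID50 RSV, five five-fold compound dilutions in triplicate with mock-infected row for cytotoxicity; 7 days at 37 °C, 5% CO2. MTT formazan read at 540 minus 690 nm; EC50 and CC50 from dose-response curves, SI = CC50/EC50.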

[2] = 168 h, Table 5a, RSV in HeLa cells, MTT, seven days after infection, pEC50 = -log of EC50 in molar units
[3] = 168 h, Table 5b, RSV in HeLa cells, MTT, seven days after infection, pEC50 = -log of EC50 in molar units
[4] = Table 6, numeric activity values, pEC50 (−log of EC50 in molar units)

SMILES	melting point [°C]	other results
Cc1cccc(N(CCC(=O)O)Cc2ccc3nc(N)n(Cc4nc(C)ccc4O)c3c2)c1 [Compound 161, 3-{[2-amino-3-(3-hydroxy-6-methyl-pyridin-2-ylmethyl)-3H-benzoimidazol-5-ylmethyl]-m-tolyl-amino}-propionic acid]	165	EC50 ([1]; 168 h, Table 3, RSV in HeLa cells, MTT, seven days after infection, pEC50 = -log of EC50 in molar units): 7.94 nM
Cc1ccc(O)c(Cn2c(N)nc3ccc(Cn4c(=O)n(C5CC5)c5ccncc54)cc32)n1 [Compound 183]	> 250	EC50 ([1]; 168 h, Table 3b, RSV in HeLa cells, MTT, seven days after infection, pEC50 = -log of EC50 in molar units): 39.8 nM
Cc1cccc(NCc2cc(C)c3nc(N)n(Cc4nc(C)ccc4O)c3c2)c1 [Compound 194, 2-[2-amino-4-methyl-6-(m-tolylamino-methyl)-benzoimidazol-1-ylmethyl]-6-methyl-pyridin-3-ol]	252	EC50 [1, 2]: 12.6 nM
CNc1nc2ccc(CN(CCO)c3cccc(C)c3)cc2n1Cc1nc(C)ccc1O [Compound 195, 2-(6-{[(2-hydroxy-ethyl)-m-tolyl-amino]-methyl}-2-methylamino-benzoimidazol-1-ylmethyl)-6-methyl-pyridin-3-ol]	204	EC50 [1, 2]: 15.8 nM
Cc1cccc(N(CCCO)Cc2ccc3nc(N)n(Cc4cccc5cccnc45)c3c2)c1 [Compound 205, 3-[(2-amino-3-quinolin-8-ylmethyl-3H-benzoimidazol-5-ylmethyl)-m-tolyl-amino]-propan-1-ol]	191	EC50 [1, 3]: 50.1 nM
Nc1nc2cc(CO)ccc2n1Cc1cccc2cccnc12 [Compound 224, (2-amino-1-quinolin-8-ylmethyl-1H-benzoimidazol-5-yl)-methanol]	> 260	EC50 [1, 3]: > 100000 nM
Cc1ccc(O)c(Cn2cnc3cc(N)ccc32)n1 [Compound 259]	248	EC50 [1, 4]: > 100000 nM
Cc1ccc(O)c(Cn2cnc3ccc(N)cc32)n1 [Compound 261]	> 250	EC50 [1, 4]: > 100000 nM
